Experimental findings from US11096952B2, “Chemicals and methods to prevent and treat TGF-beta mediated activation of fibroblasts to reduce and treat cancer and fibrosis” (Board of Supervisors of Louisiana State University and …, priority 2016, dated 2021) are described below.

For the assay, the system named is TGF-β-induced fibronectin. The assay can be described thus: High content imaging (Cellomics) screen for inhibitors of fibronectin induction by TGF-beta in WPMY-1 cells. The following applies: WPMY-1, 0-100 uM, TGF-β 24 hour. Format: cell-based, human. How it is done:
Inhibitors of CAF Differentiation. A. WPMY-1 cells were plated into each well of 4-chamber slice (for IF), or (C) in a 24 well plate (for western blot analysis). After cell attachment, vehicle or 5 ng/ml TGF-β was added into each well and incubated for 24 h in a 37° C. in a humidified incubator containing 5% CO2. For fluorescence detection (A), cells were fixed and stained with antibody detecting fibronectin and/or stained with DAPI to detect the nuclei. Protein was extracted with boiling Lamaelli buffer for WB (C) and blots were probed with anti-fibronectin or anti-tubulin antibodies. Fibronectin fluorescence (D and E) was measured in the presence or absence of TGF-β in 8 well replicates as follows. Cells were conditioned in serum-free DMEM for 48 hr prior to the addition of TGF-β. Images were acquired using a Cellomics platform with a mask shown in the schematic of (B). The mean of the total fluorescence intensity in each well was calculated from 300 cells per image field and up to 15 fields from each well for fibronectin. […]
FIGS. 4A-4H: Dose response for identified hits. As shown in the four panels of FIG. 4A, fibronectin fluorescence was measured from images acquired following a Cellomics scan using WPMY-1 cells with concentrations of hits over a range of 0-100 uM. […] Results were expressed as percent inhibition caused by cells treated with TGF-β alone and without testing compound, which was considered as 100%. […]
FIGS. 14-15 show Table I—Prestwick Library and Table II—NIH Library chemicals respectively. […] A “hit” was defined as a compound causing at least 50% reduction of “Mean_RingTotal Intensity”, which is the fluorescence intensity within the defined ring (see FIG. 2) surrounding nucleus of each cell, summed for 300 cells per image and 15 fields per image. The solvent, 0.1% Dimethyl Sulfoxide (DMSO), with and without TGF-beta served as an internal control on each plate to normalize day-to-day and plate-to-plate variation with DMSO alone as low fluorescence (0%) and TGF-β treated as maximal fluorescence (100%). […]

For the compound `C[C@H]1O[C@@H](O[C@H]2[C@@H](O)C[C@H](O[C@H]3[C@@H](O)C[C@H](O[C@H]4CC[C@@]5(C)[C@H](CC[C@@H]6[C@@H]5C[C@@H](O)[C@]5(C)[C@@H](C7=CC(=O)OC7)CC[C@]65O)C4)O[C@@H]3C)O[C@@H]2C)C[C@H](O)[C@@H]1O` [digoxin], the “IC50 / potency for inhibition of TGF-β-induced fibronectin (dose response)” value is reported as “very low IC50”.
